Test results as given in patent US7192906B2, “Substituted pyrazole derivatives, production process thereof, and herbicide compositions containing the derivatives” (SDS Biotech K.K., priority 2001, dated 2007).

Tests used:
Assay type in all cases: in vivo
[1] = test system: Chenopodium album; test: Test Example 1 upland field foliage treatment; settings: Table 4, upland field foliage treatment, index 0-5
In short: (§1)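 Post-emergence foliar spray, 1 kg a.i./ha, wettable powder diluted in water, applied 14 d after sowing in upland soil. Rating 21 d post-application, 0–5 scale: 5 ≥90%, 4 70–<90%, 3 50–<70%, 2 30–<50%, 1 10–<30%, 0 <10% effect or injury.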

[2] = test system: Digitaria adscendens; test: Test Example 1 upland field foliage treatment; settings: Table 4, upland field foliage treatment, index 0-5
In short: as §1

[3] = test system: Setaria viridis; test: Test Example 1 upland field foliage treatment; settings: Table 4, upland field foliage treatment, index 0-5
In short: as §1

[4] = test system: Stellaria media; test: Test Example 1 upland field foliage treatment; settings: Table 4, upland field foliage treatment, index 0-5
In short: as §1

[5] = test system: soybean (Glycine max); test: Test Example 1 upland field foliage treatment, crop phytotoxicity; settings: Table 4, upland field foliage treatment, index 0-5
In short: as §1

[6] = test system: wheat (Triticum aestivum); test: as above; settings: Table 4, upland field foliage treatment, index 0-5
In short: as §1

[7] = test system: Chenopodium album; test: Test Example 2 upland soil treatment; settings: Table 5, upland soil treatment, index 0-5
In short: (§2)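 Seeds are sown into upland soil and covered by roughly 1 cm of soil, then the compound, formulated as a wettable powder and diluted with water, is applied uniformly to the soil surface the following day at 1 kg active ingredient per hectare. Herbicidal effect or phytotoxicity is graded 0 to 5 after 21 days.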

[8] = test system: Digitaria adscendens; test: Test Example 2 upland soil treatment; settings: Table 5, upland soil treatment, index 0-5
In short: as §2

[9] = test system: Setaria viridis; test: Test Example 2 upland soil treatment; settings: Table 5, upland soil treatment, index 0-5
In short: as §2

[10] = test system: Stellaria media; test: Test Example 2 upland soil treatment; settings: Table 5, upland soil treatment, index 0-5
In short: as §2

[11] = test system: soybean (Glycine max); test: Test Example 2 upland soil treatment, crop phytotoxicity; settings: Table 5, upland soil treatment, index 0-5
In short: as §2

[12] = test system: wheat (Triticum aestivum); test: as above; settings: Table 5, upland soil treatment, index 0-5
In short: as §2

[13] = test system: Ammannia multiflora; test: Test Example 3 paddy field treatment; settings: active ingredient 1 kg per hectare, index 0-5
In short: (§3)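 Scoring used a 0–5 scale of herbicidal effect or phytotoxicity, from <10% to ≥90%, taken 21 days after treatment. Treatment was 1 kg a.i./ha as diluted wettable powder dripped onto 4 cm-deep flooded pots sown with the weeds, 10 days after transplanting two-leaf Koshihikari rice.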

[14] = test system: Echinochloa crusgalli; test: Test Example 3 paddy field treatment; settings: active ingredient 1 kg per hectare, index 0-5
In short: as §3

[15] = test system: Monochoria vaginalis; test: Test Example 3 paddy field treatment; settings: active ingredient 1 kg per hectare, index 0-5
In short: as §3

[16] = test system: Scirpus juncoides; test: Test Example 3 paddy field treatment; settings: active ingredient 1 kg per hectare, index 0-5
In short: as §3

[17] = test system: Rice (Oryza sativa); test: Test Example 3 paddy field treatment, crop phytotoxicity; settings: active ingredient 1 kg per hectare, index 0-5; for Herbicidal activity OS (phytotoxicity to rice): paddy field treatment, transplanted rice Koshihikari, wettable powder, 21st day after the dropping
In short: as §3

[18] = paddy field treatment, wettable powder, 21st day after the dropping
[19] = Table 6, paddy field treatment, 21st day after dropping

| SMILES | Herbicidal activity CA: Chenopodium album [1] | Herbicidal activity DA: Digitaria adscendens [2] | Herbicidal activity SV: Setaria viridis [3] | Herbicidal activity SM: Stellaria media [4] | Herbicidal activity (phytotoxicity) GM: Soybean (Glycine max) [5] | Herbicidal activity (phytotoxicity) TA: Wheat (Triticum aestivum) [6] | Herbicidal activity CA: Chenopodium album [7] | Herbicidal activity DA: Digitaria adscendens [8] | Herbicidal activity SV: Setaria viridis [9] | Herbicidal activity SM: Stellaria media [10] | Herbicidal activity (phytotoxicity) GM: Soybean (Glycine max) [11] | Herbicidal activity (phytotoxicity) TA: Wheat (Triticum aestivum) [12] | Herbicidal activity AM [13, 18] | Herbicidal activity EC [14, 18] | Herbicidal activity MV [15, 18] | Herbicidal activity SJ [16, 18] | Herbicidal activity OS (phytotoxicity to rice) [17] | further results |
| --- | --- | --- | --- | --- | --- | --- | --- | --- | --- | --- | --- | --- | --- | --- | --- | --- | --- | --- |
| CNC(=O)C(Cn1cc(C)c(-c2ccc(Cl)cc2)n1)=NOC [Compound 47] | 5 (herbicidal effect of not less than 90%, or phytotoxicity of 90% or more) | 5 (herbicidal effect of not less than 90%, or phytotoxicity of 90% or more) | 5 (herbicidal effect of not less than 90%, or phytotoxicity of 90% or more) | 5 (herbicidal effect of not less than 90%, or phytotoxicity of 90% or more) | 0 (herbicidal effect of not less than 0% and less than 10%, or phytotoxicity of 0% or more and less than 10%) | 0 (herbicidal effect of not less than 0% and less than 10%, or phytotoxicity of 0% or more and less than 10%) | 5 (herbicidal effect of not less than 90%, or phytotoxicity of 90% or more) | 5 (herbicidal effect of not less than 90%, or phytotoxicity of 90% or more) | 5 (herbicidal effect of not less than 90%, or phytotoxicity of 90% or more) | 5 (herbicidal effect of not less than 90%, or phytotoxicity of 90% or more) | 0 (herbicidal effect of not less than 0% and less than 10%, or phytotoxicity of 0% or more and less than 10%) | 0 (herbicidal effect of not less than 0% and less than 10%, or phytotoxicity of 0% or more and less than 10%) | 5 (herbicidal effect of not less than 90%, or phytotoxicity of 90% or more) | 5 (herbicidal effect of not less than 90%, or phytotoxicity of 90% or more) | 5 (herbicidal effect of not less than 90%, or phytotoxicity of 90% or more) | 5 (herbicidal effect of not less than 90%, or phytotoxicity of 90% or more) | 0 (herbicidal effect of not less than 0% and less than 10%, or phytotoxicity of 0% or more and less than 10%) |  |
| CNC(=O)C(Cn1cc(C)c(-c2ccc(Oc3ccccc3)cc2)n1)=NOC [Compound 53] | 5 (herbicidal effect of not less than 90%, or phytotoxicity of 90% or more) | 5 (herbicidal effect of not less than 90%, or phytotoxicity of 90% or more) | 4 (herbicidal effect of not less than 70% and less than 90%, or phytotoxicity of 70% or more and less than 90%) | 4 (herbicidal effect of not less than 70% and less than 90%, or phytotoxicity of 70% or more and less than 90%) | 0 (herbicidal effect of not less than 0% and less than 10%, or phytotoxicity of 0% or more and less than 10%) | 0 (herbicidal effect of not less than 0% and less than 10%, or phytotoxicity of 0% or more and less than 10%) | 4 (herbicidal effect of not less than 70% and less than 90%, or phytotoxicity of 70% or more and less than 90%) | 5 (herbicidal effect of not less than 90%, or phytotoxicity of 90% or more) | 3 (herbicidal effect of not less than 50% and less than 70%, or phytotoxicity of 50% or more and less than 70%) | 4 (herbicidal effect of not less than 70% and less than 90%, or phytotoxicity of 70% or more and less than 90%) | 0 (herbicidal effect of not less than 0% and less than 10%, or phytotoxicity of 0% or more and less than 10%) | 0 (herbicidal effect of not less than 0% and less than 10%, or phytotoxicity of 0% or more and less than 10%) | 5 (herbicidal effect of not less than 90%, or phytotoxicity of 90% or more) | 5 (herbicidal effect of not less than 90%, or phytotoxicity of 90% or more) | 5 (herbicidal effect of not less than 90%, or phytotoxicity of 90% or more) | 5 (herbicidal effect of not less than 90%, or phytotoxicity of 90% or more) | 0 (herbicidal effect of not less than 0% and less than 10%, or phytotoxicity of 0% or more and less than 10%) |  |
| CNC(=O)C(Cn1cc(C)c(-c2ccc(F)cc2F)n1)=NOC [Compound 56] | 5 (herbicidal effect of not less than 90%, or phytotoxicity of 90% or more) | 5 (herbicidal effect of not less than 90%, or phytotoxicity of 90% or more) | 5 (herbicidal effect of not less than 90%, or phytotoxicity of 90% or more) | 5 (herbicidal effect of not less than 90%, or phytotoxicity of 90% or more) | 0 (herbicidal effect of not less than 0% and less than 10%, or phytotoxicity of 0% or more and less than 10%) | 0 (herbicidal effect of not less than 0% and less than 10%, or phytotoxicity of 0% or more and less than 10%) | 5 (herbicidal effect of not less than 90%, or phytotoxicity of 90% or more) | 5 (herbicidal effect of not less than 90%, or phytotoxicity of 90% or more) | 5 (herbicidal effect of not less than 90%, or phytotoxicity of 90% or more) | 5 (herbicidal effect of not less than 90%, or phytotoxicity of 90% or more) | 1 (herbicidal effect of not less than 10% and less than 30%, or phytotoxicity of 10% or more and less than 30%) | 0 (herbicidal effect of not less than 0% and less than 10%, or phytotoxicity of 0% or more and less than 10%) |  |  |  |  |  | Herbicidal activity AM [13, 19]: 5 (herbicidal effect of not less than 90%, or phytotoxicity of 90% or more); Herbicidal activity EC [14, 19]: 5 (herbicidal effect of not less than 90%, or phytotoxicity of 90% or more); Herbicidal activity MV [15, 19]: 5 (herbicidal effect of not less than 90%, or phytotoxicity of 90% or more); Herbicidal activity SJ [16, 19]: 5 (herbicidal effect of not less than 90%, or phytotoxicity of 90% or more); Herbicidal activity (phytotoxicity) OS ([17]; Table 6, paddy field treatment, transplanted rice, 21st day after dropping): 0 (herbicidal effect of not less than 0% and less than 10%, or phytotoxicity of 0% or more and less than 10%) |
